Results on 7 compounds are retold here after paper PMC3794980, “Identification of Conserved and HLA Promiscuous DENV3 T-Cell Epitopes” (PLoS Neglected Tropical Diseases, 2013).

Structures are written as SMILES.

For orientation: IC50 means the midpoint of a concentration-inhibition curve. Low readings indicate higher potency, high ones lower potency.

In this experiment the target is DRB3*0101 (Homo sapiens, UniProt P01903+P79483). Briefly: biochemical. It is filed as binding.
Compound `CC[C@H](C)[C@H](NC(=O)[C@H](CC(=O)O)NC(=O)[C@@H](NC(=O)[C@@H](NC(=O)[C@@H](NC(=O)[C@@H](NC(=O)[C@@H](N)Cc1ccccc1)C(C)C)C(C)C)[C@@H](C)O)[C@@H](C)O)C(=O)N[C@@H](CO)C(=O)N[C@@H](CCC(=O)O)C(=O)N[C@@H](CCSC)C(=O)NCC(=O)N[C@@H](C)C(=O)N[C@@H](CC(N)=O)C(=O)N[C@@H](Cc1ccccc1)C(=O)N[C@@H](CCCCN)C(=O)O` [NS3 405-419] displayed a concentration for half-maximal inhibition (IC50) of 1.59 µM.
As for `CC[C@H](C)[C@H](NC(=O)CNC(=O)[C@@H](NC(=O)[C@H](C)NC(=O)[C@@H](NC(=O)[C@H](CS)NC(=O)[C@@H](N)CO)[C@@H](C)CC)[C@@H](C)CC)C(=O)N[C@H](C(=O)N[C@H](C(=O)N[C@@H](CC(C)C)C(=O)N[C@@H](Cc1ccc(O)cc1)C(=O)N[C@@H](CC(C)C)C(=O)NCC(=O)N[C@@H](C)C(=O)N[C@H](C(=O)N[C@H](C(=O)N[C@@H](CCC(N)=O)C(=O)N[C@@H](C)C(=O)O)C(C)C)C(C)C)[C@@H](C)O)[C@@H](C)CC` [Envelope 476-493], the IC50 is 3.83 µM. Compared with the last compound, the IC50 is about 2.4-fold higher.
To `CC[C@H](C)[C@H](NC(=O)CNC(=O)[C@H](CO)NC(=O)[C@H](CCCCN)NC(=O)[C@@H](N)CCCCN)C(=O)N[C@H](C(=O)N[C@@H](CCC(=O)O)C(=O)N[C@H](C(=O)N[C@@H](CC(=O)O)C(=O)N[C@@H](CCCNC(=N)N)C(=O)N[C@H](C(=O)N[C@@H](CCC(=O)O)C(=O)N[C@@H](C)C(=O)N[C@@H](CCCCN)C(=O)N[C@@H](CCC(=O)O)C(=O)NCC(=O)N[C@@H](CC(C)C)C(=O)O)[C@@H](C)O)C(C)C)[C@@H](C)O` [NS5 29-45] belongs 5.38 µM; to `CC[C@H](C)[C@H](NC(=O)[C@@H](NC(=O)[C@H](CCCNC(=N)N)NC(=O)[C@H](CC(=O)O)NC(=O)[C@H](C)NC(=O)[C@H](CCCCN)NC(=O)[C@H](Cc1ccccc1)NC(=O)[C@@H](N)CC(N)=O)C(C)C)C(=O)N[C@@H](CC(=O)O)C(=O)N1CCC[C@H]1C(=O)N[C@@H](CCCNC(=N)N)C(=O)N[C@@H](CCCNC(=N)N)C(=O)N[C@@H](CS)C(=O)N[C@@H](CC(C)C)C(=O)N[C@@H](CCCCN)C(=O)O` [NS3 417-431], 0.632 µM; to `CC[C@H](C)[C@H](NC(=O)[C@@H]1CCCN1C(=O)[C@H](CCCCN)NC(=O)[C@@H](NC(=O)[C@@H](NC(=O)[C@H](CS)NC(=O)[C@@H](N)CC(=O)O)C(C)C)C(C)C)C(=O)N[C@@H](CC(=O)O)C(=O)N[C@@H](CC(=O)O)C(=O)N[C@@H](CCCNC(=N)N)C(=O)N[C@@H](Cc1ccccc1)C(=O)N[C@@H](C)C(=O)N[C@@H](CC(N)=O)C(=O)N[C@@H](C)C(=O)N[C@@H](CC(C)C)C(=O)N[C@@H](CC(C)C)C(=O)N[C@@H](C)C(=O)O` [NS5 664-680], 4.09 µM.
The compound `CC[C@H](C)[C@H](NC(=O)[C@@H](NC(=O)[C@H](CC(C)C)NC(=O)[C@H](CC(N)=O)NC(=O)[C@H](CCCNC(=N)N)NC(=O)[C@H](CCCCN)NC(=O)[C@H](CCCCN)NC(=O)[C@H](Cc1ccccc1)NC(=O)[C@H](CCSC)NC(=O)[C@H](CCC(=O)O)NC(=O)[C@H](CCC(=O)O)NC(=O)[C@H](CCC(=O)O)NC(=O)[C@H](CC(C)C)NC(=O)[C@H](CCC(=O)O)NC(=O)[C@@H]1CCCN1)[C@@H](C)O)C(=O)O` [NS3 177-191] gave an IC50 of 10.7 µM.
For `CC[C@H](C)[C@H](NC(=O)[C@H](Cc1ccc(O)cc1)NC(=O)[C@H](CCC(N)=O)NC(=O)[C@H](CC(=O)O)NC(=O)[C@H](CC(N)=O)NC(=O)[C@H](CCC(=O)O)NC(=O)[C@H](CCCCN)NC(=O)[C@H](CCC(N)=O)NC(=O)[C@@H]1CCCN1C(=O)[C@@H](N)CC(N)=O)C(=O)N[C@@H](Cc1ccccc1)C(=O)N[C@H](C(=O)NCC(=O)N[C@@H](CCC(N)=O)C(=O)N1CCC[C@H]1C(=O)O)[C@@H](C)O` [NS3 465-479] the value was 10.6 µM.
